Experimental data as given in ChEMBL document CHEMBL1201862, “PubChem BioAssay data set” (2004).
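A five-concentration, 48-hour dose response in 96-well plates underlies each endpoint, interpolated linearly between surrounding concentrations. GI50 = concentration required for 50% inhibition of growth.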 Calls of active or inactive are those of the source. Rule as the data show it: active = GI50 up to about 1.1 µM and inactive = higher.

Assays:
Experiment in all cases: NCI tumour cell line growth inhibition, 48 h
A498 = tested on: A498
ACHN = tested on: ACHN
CAKI-1 = tested on: CAKI-1
CCRF-CEM = tested on: CCRF-CEM
COLO 205 = tested on: COLO 205
DLD-1 = tested on: DLD-1
DMS-114 = tested on: DMS-114
DMS-273 = tested on: DMS-273
EKVX = tested on: EKVX
HCT-15 = tested on: HCT-15
HL-60 = tested on: HL-60
HOP-18 = tested on: HOP-18
HOP-92 = tested on: HOP-92
HT-29 = tested on: HT-29
IGROV-1 = tested on: IGROV-1
K562 = tested on: K562
KM-20L2 = tested on: KM-20L2
LOX IMVI = tested on: LOX IMVI
LXFL 529 = tested on: LXFL 529
M14 = tested on: M14
M19-MEL = tested on: M19-MEL
MOLT-4 = tested on: MOLT-4
Malme-3M = tested on: Malme-3M
NCI-H226 = tested on: NCI-H226
NCI-H23 = tested on: NCI-H23
NCI-H460 = tested on: NCI-H460
NCI-H522 = tested on: NCI-H522
OVCAR-3 = tested on: OVCAR-3
OVCAR-8 = tested on: OVCAR-8
RPMI-8226 = tested on: RPMI-8226
RXF 631 = tested on: RXF 631
SF-268 = tested on: SF-268
SF-295 = tested on: SF-295
SF-539 = tested on: SF-539
SK-MEL-28 = tested on: SK-MEL-28
SK-MEL-2 = tested on: SK-MEL-2
SK-MEL-5 = tested on: SK-MEL-5
SK-OV-3 = tested on: SK-OV-3
SN12C = tested on: SN12C
SNB-19 = tested on: SNB-19
SNB-75 = tested on: SNB-75
SNB-78 = tested on: SNB-78
SW-620 = tested on: SW-620
TK-10 = tested on: TK-10
U-251 = tested on: U-251
UACC-62 = tested on: UACC-62
UO-31 = tested on: UO-31
XF498 = tested on: XF498
786-0 = tested on: 786-0
A549 = tested on: A549
HCT-116 = tested on: HCT-116
HOP-62 = tested on: HOP-62
KM12 = tested on: KM12
OVCAR-4 = tested on: OVCAR-4
OVCAR-5 = tested on: OVCAR-5
RXF 393 = tested on: RXF 393
SR = tested on: SR
UACC-257 = tested on: UACC-257
HCC 2998 = tested on: HCC 2998

## c1ccc2c(c1)nc1n2CSC1
A498
  GI50: > 100 µM (inactive)
ACHN
  GI50: > 100 µM (inactive)
CAKI-1
  GI50: > 100 µM (inactive)
CCRF-CEM
  GI50: > 100 µM (inactive)
COLO 205
  GI50: > 100 µM (inactive)
DLD-1
  GI50: > 100 µM (inactive)
DMS-114
  GI50: > 100 µM (inactive)
DMS-273
  GI50: > 100 µM (inactive)
EKVX
  GI50: > 100 µM (inactive)
HCT-15
  GI50: > 100 µM
HL-60
  GI50: > 100 µM (inactive)
HOP-18
  GI50: > 100 µM (inactive)
HOP-92
  GI50: 24 µM (inactive)
HT-29
  GI50: > 100 µM (inactive)
IGROV-1
  GI50: > 100 µM (inactive)
K562
  GI50: > 100 µM (inactive)
KM-20L2
  GI50: > 100 µM (inactive)
LOX IMVI
  GI50: > 100 µM (inactive)
LXFL 529
  GI50: > 100 µM (inactive)
M14
  GI50: > 100 µM (inactive)
M19-MEL
  GI50: > 100 µM (inactive)
MOLT-4
  GI50: > 100 µM (inactive)
Malme-3M
  GI50: > 100 µM (inactive)
NCI-H226
  GI50: > 100 µM (inactive)
NCI-H23
  GI50: > 100 µM (inactive)
NCI-H460
  GI50: > 100 µM (inactive)
NCI-H522
  GI50: > 100 µM (inactive)
OVCAR-3
  GI50: > 100 µM (inactive)
OVCAR-8
  GI50: > 100 µM (inactive)
RPMI-8226
  GI50: > 100 µM (inactive)
RXF 631
  GI50: > 100 µM (inactive)
SF-268
  GI50: > 100 µM (inactive)
SF-295
  GI50: > 100 µM (inactive)
SF-539
  GI50: > 100 µM (inactive)
SK-MEL-28
  GI50: > 100 µM (inactive)
SK-MEL-2
  GI50: > 100 µM (inactive)
SK-MEL-5
  GI50: > 100 µM (inactive)
SK-OV-3
  GI50: > 100 µM (inactive)
SN12C
  GI50: > 100 µM (inactive)
SNB-19
  GI50: > 100 µM (inactive)
SNB-75
  GI50: > 100 µM (inactive)
SNB-78
  GI50: > 100 µM (inactive)
SW-620
  GI50: > 100 µM (inactive)
TK-10
  GI50: > 100 µM (inactive)
U-251
  GI50: > 100 µM (inactive)
UACC-62
  GI50: > 100 µM (inactive)
UO-31
  GI50: > 100 µM (inactive)
XF498
  GI50: > 100 µM (inactive)

## C/C(=N/NC(=O)c1ccccc1S(N)(=O)=O)C(CN1CCCCC1)C(C1=C(O)C2C=CC=CC2OC1=O)c1ccccc1 (configuration not stated)
786-0
  GI50: > 100 µM (inactive)
A498
  GI50: > 100 µM (inactive)
A549
  GI50: 91.2 µM (inactive)
ACHN
  GI50: 61.7 µM (inactive)
CAKI-1
  GI50: > 100 µM (inactive)
CCRF-CEM
  GI50: 21.9 µM (inactive)
COLO 205
  GI50: 18.6 µM (inactive)
DLD-1
  GI50: > 100 µM (inactive)
EKVX
  GI50: > 100 µM (inactive)
HCT-116
  GI50: > 100 µM (inactive)
HCT-15
  GI50: 49.9 µM
HL-60
  GI50: 23.4 µM (inactive)
HOP-18
  GI50: 87.1 µM (inactive)
HOP-62
  GI50: > 100 µM (inactive)
HOP-92
  GI50: 14 µM (inactive)
HT-29
  GI50: 83.9 µM (inactive)
IGROV-1
  GI50: > 100 µM (inactive)
K562
  GI50: 43.6 µM (inactive)
KM-20L2
  GI50: > 100 µM (inactive)
KM12
  GI50: 97.3 µM (inactive)
LOX IMVI
  GI50: 74.5 µM (inactive)
LXFL 529
  GI50: 96.6 µM (inactive)
M14
  GI50: 78.3 µM (inactive)
M19-MEL
  GI50: 47.6 µM (inactive)
Malme-3M
  GI50: 62.7 µM (inactive)
NCI-H226
  GI50: 90.2 µM (inactive)
NCI-H23
  GI50: > 100 µM (inactive)
NCI-H460
  GI50: 77.4 µM (inactive)
NCI-H522
  GI50: 52.7 µM (inactive)
OVCAR-3
  GI50: 41.6 µM (inactive)
OVCAR-4
  GI50: 67.1 µM (inactive)
OVCAR-5
  GI50: > 100 µM (inactive)
OVCAR-8
  GI50: > 100 µM (inactive)
RPMI-8226
  GI50: 25.5 µM (inactive)
RXF 393
  GI50: 28.4 µM (inactive)
RXF 631
  GI50: > 100 µM (inactive)
SF-268
  GI50: 58.5 µM (inactive)
SF-295
  GI50: 57.8 µM (inactive)
SF-539
  GI50: > 100 µM (inactive)
SK-MEL-2
  GI50: 59.2 µM (inactive)
SK-MEL-5
  GI50: 56.9 µM (inactive)
SK-OV-3
  GI50: > 100 µM (inactive)
SN12C
  GI50: 78.7 µM (inactive)
SNB-19
  GI50: 87.7 µM (inactive)
SNB-75
  GI50: > 100 µM (inactive)
SNB-78
  GI50: > 100 µM (inactive)
SR
  GI50: 23.7 µM (inactive)
SW-620
  GI50: 31.8 µM (inactive)
TK-10
  GI50: > 100 µM (inactive)
U-251
  GI50: 89.1 µM (inactive)
UACC-257
  GI50: 95.7 µM (inactive)
UACC-62
  GI50: 82.6 µM (inactive)
UO-31
  GI50: 74.5 µM (inactive)
XF498
  GI50: > 100 µM (inactive)

## COc1ccc(C2ON(c3cccc(C)n3)CC=C2C)cc1 (configuration not stated)
786-0
  GI50: 44.7 µM (inactive)
A549
  GI50: 40.7 µM (inactive)
ACHN
  GI50: 56 µM (inactive)
CAKI-1
  GI50: 74.1 µM (inactive)
CCRF-CEM
  GI50: 42.9 µM (inactive)
COLO 205
  GI50: 41.4 µM (inactive)
DLD-1
  GI50: 35.7 µM (inactive)
DMS-114
  GI50: 40.7 µM (inactive)
DMS-273
  GI50: 26.1 µM (inactive)
EKVX
  GI50: > 100 µM (inactive)
HCC 2998
  GI50: 59.3 µM (inactive)
HCT-15
  GI50: 26.9 µM
HL-60
  GI50: 18 µM (inactive)
HOP-18
  GI50: > 100 µM (inactive)
HOP-62
  GI50: 65.3 µM (inactive)
HT-29
  GI50: 32 µM (inactive)
IGROV-1
  GI50: 60.8 µM (inactive)
K562
  GI50: 38.8 µM (inactive)
KM-20L2
  GI50: 47.1 µM (inactive)
KM12
  GI50: 36.3 µM (inactive)
LOX IMVI
  GI50: 41.5 µM (inactive)
LXFL 529
  GI50: 37.2 µM (inactive)
M14
  GI50: 32.6 µM (inactive)
M19-MEL
  GI50: 34.6 µM (inactive)
MOLT-4
  GI50: 36.4 µM (inactive)
Malme-3M
  GI50: 36.6 µM (inactive)
NCI-H226
  GI50: > 100 µM (inactive)
NCI-H23
  GI50: 27.6 µM (inactive)
NCI-H460
  GI50: 67.9 µM (inactive)
NCI-H522
  GI50: 19.2 µM (inactive)
OVCAR-3
  GI50: > 100 µM (inactive)
OVCAR-4
  GI50: 62.5 µM (inactive)
OVCAR-5
  GI50: > 100 µM (inactive)
OVCAR-8
  GI50: > 100 µM (inactive)
RPMI-8226
  GI50: 30.9 µM (inactive)
RXF 393
  GI50: 29.4 µM (inactive)
RXF 631
  GI50: 48.2 µM (inactive)
SF-268
  GI50: 60.1 µM (inactive)
SF-295
  GI50: 59.8 µM (inactive)
SF-539
  GI50: 60 µM (inactive)
SK-MEL-28
  GI50: 23.7 µM (inactive)
SK-MEL-2
  GI50: 27.4 µM (inactive)
SK-MEL-5
  GI50: 17.6 µM (inactive)
SK-OV-3
  GI50: 97.9 µM (inactive)
SN12C
  GI50: 70.6 µM (inactive)
SNB-19
  GI50: 97.1 µM (inactive)
SNB-75
  GI50: 29 µM (inactive)
SNB-78
  GI50: 37.4 µM (inactive)
SR
  GI50: 30.1 µM (inactive)
SW-620
  GI50: 30.6 µM (inactive)
U-251
  GI50: 32.4 µM (inactive)
UACC-257
  GI50: 31 µM (inactive)
UACC-62
  GI50: 40.7 µM (inactive)
UO-31
  GI50: 45.7 µM (inactive)
XF498
  GI50: 38.3 µM (inactive)
